Results published in article PMC12584665, “In vitro and in vivo efficacy of vancomycin against Elizabethkingia species and the impact of increased vancomycin MICs” (Microbiology Spectrum, 2025).
≈ marks a conversion by molar mass, not a printed value.

What was measured:
[1] = test system: Elizabethkingia anophelis; assay: Disc diffusion (DD) zone diameter; type: cell-based
Description: (§1) Eighteen E. anophelis clinical isolates from the nationwide surveillance program (Taiwan Surveillance of Antimicrobial Resistance) were well characterized in our previous study ([7]) and were selected for susceptibility testing and minimum bactericidal concentration (MBC) assays. Among them, five isolates with different clonality (underlined strains in Fig. S1) were selected for the time-kill assays and in vivo experiments.
(§2) Broth microdilution, disc diffusion, Etest, and agar dilution assays were conducted following CLSI guidelines to determine vancomycin MICs ([8]). […] Criteria for Staphylococcus spp. were not adopted due to the lack of a zone diameter breakpoint. MBCs were determined following CLSI guidelines ([8]).

[2] = Serum drug levels in mice (LC-MS/MS); type: in vivo; conditions: single dose 25 mg/kg subcutaneous, mice, LC-MS/MS; in contrast to 100 mg/kg; 6 to 8 mice per group
Experimental: Fifty microliters of aliquots of murine serum was mixed with 100 µL acetonitrile. The mixture was vortexed and then centrifuged at 15,000 × g for 20 min in a Beckman Coulter Microfuge 22R Centrifuge at room temperature. The supernatant was transferred to a clean tube, and then 15 µL of the supernatant was injected onto LC-MS/MS. The chromatographic system consisted of an Agilent 1200 series LC system and an Agilent ZORBAX Eclipse XDB-C8 column (5 µm, 3.0 × 150 mm) interfaced to an MDS Sciex API3000 tandem mass spectrometer. The MS/MS ion transitions monitored were m/z 725/144 for vancomycin. A gradient HPLC method was employed for separation. Mobile phase A consisted of 10 mM ammonium acetate aqueous solution containing 0.1% formic acid and mobile phase B consisted of acetonitrile. The gradient profile was as follows (min/%B): 0.0–0.9/5, 1.0–2.0/50, 2.1–3.7/95, 3.8–5.0/5. The flow rate was set at 1.5 mL/min.

[3] = test system: Elizabethkingia anophelis; assay: Etest MIC; type: cell-based
Description: as §1, §2

[4] = test system: Elizabethkingia anophelis; assay: Minimum bactericidal concentration (MBC) test; type: cell-based; conditions: for MBC: Elizabethkingia anophelis
Description: as §1, §2

[5] = test system: Elizabethkingia anophelis; assay: Murine neutropenic thigh infection model; type: in vivo, C57BL/6J mice
Experimental: In vivo efficacy was assessed by wax moth (Galleria mellonella), murine pneumonia, and murine thigh infection models following the protocols of our previous study ([2]). The Animal Ethics Committee of Taiwan’s National Health Research Institutes approved the murine pneumonia and thigh infection models.
For the thigh infection model, seven-week-old C57BL/6J mice were rendered neutropenic by intraperitoneal injections of cyclophosphamide (Cytoxan; Bristol-Myers Squibb, Princeton, NJ, USA) 4 days (150 mg/kg) and 1 day (100 mg/kg) before bacterial inoculation. A 30 µL aliquot containing the E. anophelis (10^7 cfu) was injected into each of the two rear thighs. Vancomycin (25 mg/kg or 100 mg/kg, subcutaneous) or teicoplanin (50 mg/kg, intraperitoneal) was administered 2 h and 14 h after inoculation. Mice were sacrificed 24 h post-inoculation, and homogenized thigh tissue was plated in serial 10-fold dilutions on brain-heart infusion agar to determine bacterial counts. Each mouse, not each thigh, was considered an individual data point.

[6] = test system: Elizabethkingia anophelis; assay: Time-kill assay; type: cell-based; conditions: triplicate; for growth in time-kill assay: five clinical isolates, MH broth, ~5 x 10^5 CFU/mL, 37°C
Experimental: Time-kill assays were performed as previously described with modifications ([10]). Each 250 mL flask containing 30 mL MH broth (Becton Dickinson, Franklin Lakes, NJ, USA) was inoculated to achieve an initial bacterial density of ~5 × 10⁵ CFU/mL. Cultures were incubated at 37°C with shaking at 200 rpm. Vancomycin or teicoplanin (Sigma-Aldrich, Saint Louis, MO, USA) was added at final concentrations of 4 or 16 mg/L. At designated time points, 100 µL of samples was removed, serially diluted in sterile saline, and plated on MH agar for CFU enumeration after overnight incubation at 37°C. No washing steps were performed prior to plating; given the culture volume and dilution scheme, antibiotic carryover was expected to be negligible. All experiments were performed in triplicate.

[7] = E. anophelis clinical isolate 2008N05-106
[8] = E. anophelis clinical isolate 2008S01-229
[9] = E. anophelis clinical isolate 2014C06-157
[10] = E. anophelis clinical isolate 2016N17-576
[11] = E. anophelis clinical isolate 2018C04-213
[12] = E. anophelis clinical isolate 2018C04-224
[13] = E. anophelis clinical isolate 2018C07-210
[14] = E. anophelis clinical isolate 2018C07-234
[15] = E. anophelis clinical isolate 2018C08-127
[16] = E. anophelis clinical isolate 2018E03-151
[17] = E. anophelis clinical isolate 2018E04-135
[18] = E. anophelis clinical isolate 2018N16-057
[19] = E. anophelis clinical isolate 2018N17-036
[20] = E. anophelis clinical isolate 2018N17-073
[21] = E. anophelis clinical isolate 2018N17-153
[22] = E. anophelis clinical isolate 2018N21-226
[23] = E. anophelis clinical isolate 2018S09-023
[24] = E. anophelis clinical isolate 2018S11-172

## CN[C@H](CC(C)C)C(=O)N[C@H]1C(=O)N[C@@H](CC(N)=O)C(=O)N[C@H]2C(=O)N[C@H]3C(=O)N[C@H](C(=O)N[C@H](C(=O)O)c4cc(O)cc(O)c4-c4cc3ccc4O)[C@H](O)c3ccc(c(Cl)c3)Oc3cc2cc(c3O[C@@H]2O[C@H](CO)[C@@H](O)[C@H](O)[C@H]2O[C@H]2C[C@](C)(N)[C@H](O)[C@H](C)O2)Oc2ccc(cc2Cl)[C@H]1O [Vancomycin]
[1]; 18 E. anophelis isolates, disc diffusion, susceptibility breakpoint >= 17 mm (Enterococcus spp.)
  zone diameters, all isolates: < 17 mm
[1]; [7]
  DD zone diameter: 15 mm
[1]; [8]
  DD zone diameter: 15 mm
[1]; [9]
  DD zone diameter: 15 mm
[1]; [10]
  DD zone diameter: 15 mm
[1]; [11]
  DD zone diameter: 15 mm
[1]; [12]
  DD zone diameter: 15 mm
[1]; [13]
  DD zone diameter: 14 mm
[1]; [14]
  DD zone diameter: 15 mm
[1]; [15]
  DD zone diameter: 14 mm
[1]; [16]
  DD zone diameter: 14 mm
[1]; [17]
  DD zone diameter: 14 mm
[1]; [18]
  DD zone diameter: 15 mm
[1]; [19]
  DD zone diameter: 15 mm
[1]; [20]
  DD zone diameter: 14 mm
[1]; [21]
  DD zone diameter: 14 mm
[1]; [22]
  DD zone diameter: 13 mm
[1]; [23]
  DD zone diameter: 15 mm
[1]; [24]
  DD zone diameter: 13 mm
[2]
  serum concentration-time profile: resembled that of humans
[3]; [7]
  MIC: 24 µg/mL (≈ 16.6 µM)
[3]; [8]
  MIC: 16 µg/mL (≈ 11 µM)
[3]; [9]
  MIC: 16 µg/mL (≈ 11 µM)
[3]; [10]
  MIC: 16 µg/mL (≈ 11 µM)
[3]; [11]
  MIC: 16 µg/mL (≈ 11 µM)
[3]; [12]
  MIC: 16 µg/mL (≈ 11 µM)
[3]; [13]
  MIC: 16 µg/mL (≈ 11 µM)
[3]; [14]
  MIC: 16 µg/mL (≈ 11 µM)
[3]; [15]
  MIC: 16 µg/mL (≈ 11 µM)
[3]; [16]
  MIC: 16 µg/mL (≈ 11 µM)
[3]; [17]
  MIC: 16 µg/mL (≈ 11 µM)
[3]; [18]
  MIC: 16 µg/mL (≈ 11 µM)
[3]; [19]
  MIC: 16 µg/mL (≈ 11 µM)
[3]; [20]
  MIC: 16 µg/mL (≈ 11 µM)
[3]; [21]
  MIC: 16 µg/mL (≈ 11 µM)
[3]; [22]
  MIC: 24 µg/mL (≈ 16.6 µM)
[3]; [23]
  MIC: 16 µg/mL (≈ 11 µM)
[3]; [24]
  MIC: 32 µg/mL (≈ 22.1 µM)
[4]; 18 E. anophelis isolates
  MBCs relative to MICs: within a twofold range of MICs
[4]; [7]
  MBC: 16 µg/mL (≈ 11 µM)
[4]; [8]
  MBC: 32 µg/mL (≈ 22.1 µM)
[4]; [9]
  MBC: 16 µg/mL (≈ 11 µM)
[4]; [10]
  MBC: 32 µg/mL (≈ 22.1 µM)
[4]; [11]
  MBC: 16 µg/mL (≈ 11 µM)
[4]; [12]
  MBC: 16 µg/mL (≈ 11 µM)
[4]; [13]
  MBC: 16 µg/mL (≈ 11 µM)
[4]; [14]
  MBC: 16 µg/mL (≈ 11 µM)
[4]; [15]
  MBC: 16 µg/mL (≈ 11 µM)
[4]; [16]
  MBC: 16 µg/mL (≈ 11 µM)
[4]; [17]
  MBC: 16 µg/mL (≈ 11 µM)
[4]; [18]
  MBC: 16 µg/mL (≈ 11 µM)
[4]; [19]
  MBC: 32 µg/mL (≈ 22.1 µM)
[4]; [20]
  MBC: 16 µg/mL (≈ 11 µM)
[4]; [21]
  MBC: 16 µg/mL (≈ 11 µM)
[4]; [22]
  MBC: 16 µg/mL (≈ 11 µM)
[4]; [23]
  MBC: 16 µg/mL (≈ 11 µM)
[4]; [24]
  MBC: 32 µg/mL (≈ 22.1 µM)
[5]; 25 mg/kg subcutaneous 2 h and 14 h after inoculation, neutropenic mice, 24 h, all clinical strains, 4 mice per group
  bacterial loads in thigh: modestly reduced the bacterial loads
[5]; 100 mg/kg subcutaneous 2 h and 14 h after inoculation, neutropenic mice, 24 h, compared with 25 mg/kg
  bacterial load in thigh: greater reduction of bacterial load
[5]; 100 mg/kg twice daily, infection by 2008S01-229-VAN-R compared to 2008S01-229
  reduction of bacterial load: hampered
[6]; 4 mg/L
  growth in time-kill assay: did not inhibit the growth
[6]; 16 mg/L
  growth in time-kill assay: Growth was inhibited at a higher level (16 mg/L) at 6 h but increased thereafter
[6]; 4 or 16 mg/L, mutant 2008S01-229-VAN-R
  time-kill assay: no effect
